# In patent US8252811B2, “Indazoles, benzothiazoles, and benzoisothiazoles, and preparation and uses thereof” (Memory Pharmaceuticals Corporation, priority 2002, dated 2012):
row,SMILES,melting point
1,Cl.O=C(N[C@H]1CN2CCC1CC2)c1ccc2scnc2c1,170 to 180 °C
2,Cl.O=C(N[C@@H]1CN2CCC1CC2)c1ccc2scnc2c1,166 to 176 °C
3,Cl.O=C(N[C@H]1CN2CCC1CC2)c1ccc2ncsc2c1,285 °C (dec.)
4,Cl.O=C(N[C@@H]1CN2CCC1CC2)c1cccc2cn[nH]c12,180 to 188 °C
